From patent US4869895A, “Radiolabeled benzazepine” (Hoffmann-La Roche Inc., priority 1988, dated 1989)

Assays:
[1] = target: benzodiazepine (BZ) receptor; assay: in vitro displacement: prevention of the binding of the compound of formula I; parameters: species or system rat (male, Sprague-Dawley); conditions: rat cerebral cortical tissue; given in words only
[2] = system: benzodiazepine (BZ) receptor; assay: in vitro benzodiazepine receptor binding of the compound of formula I (saturation, rat cerebral cortical tissue); parameters: species or system rat (male, Sprague-Dawley); conditions: for Bmax / Kd: 60 min incubation, pH 7.7; for Ratio (Specific/nonspecific): concentration of the compound of formula I at Kd, nonspecific with 10^-6 M clonazepam
[3] = system: BZ receptors in the brain; assay: in vivo binding of the compound of formula I in mouse cerebral cortex; parameters: species or system mouse (male, ICR); conditions: mice, tail vein injection
Method: In vivo binding of the compound of formula I was determined according to the following procedures. Mice (male, 30 g ICR, Hilltop Farms) were injected via the tail vein with the compound of formula I. Ten or 30 minutes later, the mice were killed, the cerebral cortices of the brains were dissected solubilized, and the radioactivity was determined using standard methods. In order to determine nonspecific binding, some mice were pretreated with 5 mg/kg clonazepam (30 min ip). Specific/nonspecific binding ratios in cerebral cortex were about 2 at 10 minutes. The tissues in these tests were assayed directly without first homogenizing and washing them to reduce nonspecific binding. Therefore, the ratios were true in vivo ratios. Radioactivity was low and specific binding was negligible at 30 minutes.

With `CCOC(=O)c1ncn2c1CN(C)C(=O)c1cc(F)ccc1-2` [Ethyl-8-fluoro-5,6-dehydro-5-methyl-6-oxo-4H-imidazol-[1,5-a]-1,4[benzodiazepine-3-carboxylate]] the “Ki, prevention of binding of the compound of formula I” value (“Ki, prevention” below) [1] was “in the nM range”.
In the case of `[3H]c1cc(Cl)cc2c1C1=C(CN=C2c2ccccc2Cl)C(=O)NC1` [compound of formula I, 8-Chloro-6-(2-chlorophenyl)-1,4-dihydropyrrolo-[3,4-d][2]-10-t-benzazepin-3(2H)-one], the Bmax ([2]; 0 °C) is reported as 1.36 × 10^-10 mol/mg wet weight, the Kd ([2]; 0 °C) is reported as 0.18 ± 0.05 nM and the “Ratio (Specific/nonspecific)” value ([2]; 0 °C) is reported as 12. The “specific to nonspecific ratios (FIG. 1)” value ([2]; 37 °C, 0.01 to 10 nM, over a relatively large range of concentrations) was “high”, the Bmax ([2]; 37 °C) was 1.22 × 10^-10 mol/mg wet weight and the Kd ([2]; 37 °C) was 0.82 ± 0.03 nM. The “Ratio (Specific/nonspecific)” value ([2]; 37 °C) was 4, the “affinity and selectivity for BZ receptors in the brain” value ([2]; summary statement) was “high affinity and is a selective ligand for BZ receptors in the brain” and the “Specific/nonspecific binding ratio in cerebral cortex” value ([3]; 10 minutes, nonspecific: 5 mg/kg clonazepam (30 min ip), tissue not homogenized or washed) was “about 2”. For the same compound, the “Radioactivity in cerebral cortex” value ([3]; 30 minutes) was “low” and the “specific binding in cerebral cortex” value ([3]; 30 minutes) was “negligible”.
In the case of `O=C1CN=C(c2ccccc2Cl)c2cc([N+](=O)[O-])ccc2N1` [clonazepam], the “Ki, prevention” value [1] is reported as “in the nM range”.
With `Cc1ncc2n1-c1ccc(Cl)cc1C(c1ccccc1F)=NC2` [midazolam] the “Ki, prevention” value [1] was “in the nM range”.
